Laboratory results taken from patent US20160316791A1, “METHOD TO PROTECT LIPOPHILIC NUTRIENTS AGAINST RUMINAL DEGRADATION” (UNIVERSITEIT GENT, priority 2013, published 2016).

System: dairy cows
Assay: In vivo protection and transfer of t10c12-CLA to milk, milk fat content
Details: 7 g per cow daily; FIG. 9
Description: Eight dairy cows in mid-lactation (100 to 220 days in milk, 562 to 712 kg live weight, minimum daily production of 20 to 25 kg milk) were used in a sequential set-up to test the in vivo protection of fatty acids and transfer to the milk. Two supplements were tested: First, a protected fatty acid emulsion, prepared according to Example 1, was administered (n=4). This product consisted of a protein extract from potato tuber peels, which was further used to emulsify a commercially available triacylglyceride mixture of cis-9, trans-11 and trans-10, cis-12 conjugated linoleic acid (t10c12-CLA) (TONALIN® TG80, BASF-AG, Ludwigshafen, Germany) and protected against rumen degradation through the creation of protein-phenol complexes by addition of 4-methylcatechol. The degree of rumen bypass of t10c12 CLA was assessed in vitro as described in Example 1 before the start of the in vivo trial. […]
The experimental period consisted of six weeks. […] Milk fat content was determined by Fourier Transform Infrared analysis (FTIR Delta Instruments, Drachten, The Netherlands) and fatty acids determined as described by Jorjong et al.^(19) Milk fat is presented as percentage of the total mass of milk produced per day and t10c12-CLA as g per 100 g of fatty acids detected.

transfer of dietary t10c12-CLA to the milk: up to 5%
SMILES: CCCCC/C=C\C=C\CCCCCCCCC(=O)O [t10c12-CLA, trans-10, cis-12 conjugated linoleic acid]
